Measured values taken from patent US20100048597A1 (Novartis AG, priority 2006, published 2010).

Tests used:
Type in all cases: biochemical
CDK9/cyclinT1 = biological target: T1, CDK9/cyclinT1 (Homo sapiens, UniProt P50750); test: CDK9/cyclinT1 kinase assay, IMAP fluorescence polarization
T1 construct: purchased Millipore
Protocol: (§1) Kinase assays were performed on recombinant purified enzymes using the non-radioactive IMAP fluorescence polarization assay format.
(§2) Compound stocks were prepared and diluted in DMSO and were added to kinase reactions at a 1/100 dilution for a final concentration of 1% DMSO. The components were added together to final concentrations listed in the tables below and incubated for two hours at room temperature.
(§3) The reactions were stopped by addition of stop solution.
CDK9/CDK1/CDK7: final stop concentration is 1× Developer buffer (85% A/15% B), IMAP beads 1/400
(§4) The samples were allowed to incubate for one more hour at room temperature and then the fluorescence polarization was measured. The plate normalized millipolarization (mP) values were plotted against the log of compound concentration for each compound and IC50 values were calculated using the spotfire IC50 calculator and confirmed by visual analysis.

CDK1/cyclinB = biological target: T2, CDK1/cyclinB (Homo sapiens, UniProt P06493); test: CDK1/cyclinB kinase assay, IMAP fluorescence polarization; settings: read-out: CDK1 IC50
T2 construct: purchased Millipore
T2 sequence (P06493 whole entry): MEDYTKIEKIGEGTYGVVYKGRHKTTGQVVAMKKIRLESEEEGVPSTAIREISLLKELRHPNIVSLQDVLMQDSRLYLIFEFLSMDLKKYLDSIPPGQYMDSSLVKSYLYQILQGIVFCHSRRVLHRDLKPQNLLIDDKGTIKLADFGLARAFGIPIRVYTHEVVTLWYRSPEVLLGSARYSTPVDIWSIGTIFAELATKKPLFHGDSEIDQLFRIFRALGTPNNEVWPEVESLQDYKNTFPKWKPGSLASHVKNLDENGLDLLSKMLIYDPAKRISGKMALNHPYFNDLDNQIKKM
T2 sequence (P14635 whole entry partner): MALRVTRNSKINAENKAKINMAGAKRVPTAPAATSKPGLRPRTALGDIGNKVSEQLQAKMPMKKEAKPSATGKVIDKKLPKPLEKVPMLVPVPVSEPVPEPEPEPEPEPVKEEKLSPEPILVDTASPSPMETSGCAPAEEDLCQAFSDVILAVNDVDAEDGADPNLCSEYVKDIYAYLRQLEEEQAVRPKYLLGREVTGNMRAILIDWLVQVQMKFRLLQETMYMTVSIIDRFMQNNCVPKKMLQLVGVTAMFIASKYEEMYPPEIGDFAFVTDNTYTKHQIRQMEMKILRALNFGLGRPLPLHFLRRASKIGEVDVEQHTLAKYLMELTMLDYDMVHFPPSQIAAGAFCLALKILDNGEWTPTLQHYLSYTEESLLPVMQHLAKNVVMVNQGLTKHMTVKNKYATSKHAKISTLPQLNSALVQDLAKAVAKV
Protocol: as §1, §2, §3
The samples were allowed to incubate for one more hour at room temperature and then the fluorescence polarization was measured.

CDK2/cyclinA = biological target: T3, CDK2/cyclinA (Homo sapiens, UniProt P24941); test: CDK2/cyclinA kinase assay, IMAP fluorescence polarization
T3 construct: purchased Millipore
Protocol: as §1, §2, §3
CDK2: final stop concentration is 1× Developer buffer (100% A), IMAP beads 1/400
as §4

T1 sequence (P50750 whole entry): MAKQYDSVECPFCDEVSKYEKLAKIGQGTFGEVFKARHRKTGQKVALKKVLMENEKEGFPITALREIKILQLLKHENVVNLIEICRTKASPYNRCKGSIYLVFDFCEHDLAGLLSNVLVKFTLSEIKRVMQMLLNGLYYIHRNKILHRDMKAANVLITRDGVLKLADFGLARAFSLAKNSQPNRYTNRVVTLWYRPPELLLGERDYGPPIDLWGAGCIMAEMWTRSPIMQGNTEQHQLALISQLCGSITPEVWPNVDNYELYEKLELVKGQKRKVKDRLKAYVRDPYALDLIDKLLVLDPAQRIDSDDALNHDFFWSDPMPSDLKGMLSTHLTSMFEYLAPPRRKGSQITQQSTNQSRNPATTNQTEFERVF
T1 sequence (O60563 whole entry partner): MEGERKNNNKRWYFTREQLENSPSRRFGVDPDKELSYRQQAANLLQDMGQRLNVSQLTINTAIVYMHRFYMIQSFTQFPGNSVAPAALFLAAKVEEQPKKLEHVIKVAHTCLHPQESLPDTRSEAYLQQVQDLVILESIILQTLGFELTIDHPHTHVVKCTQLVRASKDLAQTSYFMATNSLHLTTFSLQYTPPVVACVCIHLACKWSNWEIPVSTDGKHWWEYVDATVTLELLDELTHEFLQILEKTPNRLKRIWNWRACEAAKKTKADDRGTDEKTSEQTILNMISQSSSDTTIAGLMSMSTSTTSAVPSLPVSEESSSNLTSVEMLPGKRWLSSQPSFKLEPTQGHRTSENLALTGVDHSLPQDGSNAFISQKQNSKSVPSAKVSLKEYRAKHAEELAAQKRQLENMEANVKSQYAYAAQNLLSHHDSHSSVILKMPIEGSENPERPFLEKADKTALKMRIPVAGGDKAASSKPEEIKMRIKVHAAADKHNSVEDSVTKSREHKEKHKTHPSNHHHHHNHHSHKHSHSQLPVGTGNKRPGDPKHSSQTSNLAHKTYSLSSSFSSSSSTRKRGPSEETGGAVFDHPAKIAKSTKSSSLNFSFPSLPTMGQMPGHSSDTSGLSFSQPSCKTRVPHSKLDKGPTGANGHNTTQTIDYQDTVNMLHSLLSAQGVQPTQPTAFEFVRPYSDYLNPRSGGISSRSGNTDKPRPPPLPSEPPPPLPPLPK

COCCCNc1nccc(-c2ccnc(Nc3cccc(Cl)c3)n2)c1C [Compound 18, (3-Chloro-phenyl)-{4-[2-(3-methoxy-propylamino)-3-methyl-pyridin-4-yl]-pyrimidin-2-yl}-amine]
IC50 (CDK9/cyclinT1): < 5 µM | IC50 (CDK1/cyclinB): < 5 µM | IC50 (CDK2/cyclinA): < 5 µM

CC(=O)NCCCNc1cc(-c2cc(C)nc(Nc3cccc(Cl)c3)n2)ccn1 [Compound 34, N-(3-{4-[2-(3-Chloro-phenylamino)-6-methyl-pyrimidin-4-yl]-pyridin-2-ylamino}-propyl)-acetamide]
IC50 (CDK9/cyclinT1): < 5 µM | IC50 (CDK1/cyclinB): < 5 µM

CC(=O)NCCCNc1nccc2c1CCc1cnc(Nc3cccc(Cl)c3)nc1-2 [Compound 38, N-{3-[3-(3-Chloro-phenylamino)-9,10-dihydro-2,4,7-triaza-phenanthren-8-ylamino]-propyl}-acetamide]
IC50 (CDK9/cyclinT1): < 5 µM | IC50 (CDK1/cyclinB): 5 to 15 µM

CC(=O)NCCCNc1nccc(-c2ccnc(N(C)c3cccc(Cl)c3)n2)c1C [Compound 13, N-[3-(4-{2-[(3-Chloro-phenyl)-methyl-amino]-pyrimidin-4-yl}-3-methyl-pyridin-2-ylamino)-propyl]-acetamide]
IC50 (CDK9/cyclinT1): > 50 µM | IC50 (CDK1/cyclinB): > 50 µM

COc1ncccc1-c1ccnc(Nc2cccc(S(=O)(=O)NC3CCCCC3)c2)n1 [Compound 104, N-Cyclohexyl-3-[4-(2-methoxy-pyridin-3-yl)-pyrimidin-2-ylamino]-benzenesulfonamide]
IC50 (CDK9/cyclinT1): > 50 µM | IC50 (CDK1/cyclinB): > 50 µM | IC50 (CDK2/cyclinA): > 50 µM

CC(=O)NCCNc1ncccc1-c1ccnc(Nc2cccc(Cl)c2)n1 [Compound 54, N-(2-{3-[2-(3-Chloro-phenylamino)-pyrimidin-4-yl]-pyridin-2-ylamino}-ethyl)-acetamide]
IC50 (CDK9/cyclinT1): < 5 µM | IC50 (CDK1/cyclinB): < 5 µM | IC50 (CDK2/cyclinA): < 5 µM

CNCCCN(C)c1nccc(-c2ccnc(N(C)c3cccc(Cl)c3)n2)c1C [Compound 11, N-(4-{2-[(3-Chloro-phenyl)-methyl-amino]-pyrimidin-4-yl}-3-methyl-pyridin-2-yl)-N,N′-dimethyl-propane-1,3-diamine]
IC50 (CDK9/cyclinT1): > 50 µM | IC50 (CDK1/cyclinB): 15 to 50 µM

Nc1cnccc1-c1ccnc(Nc2cccc(Cl)c2)n1 [Compound 1, [4-(3-Amino-pyridin-4-yl)-pyrimidin-2-yl]-(3-chloro-phenyl)-amine]
IC50 (CDK9/cyclinT1): < 5 µM | IC50 (CDK1/cyclinB): < 5 µM | IC50 (CDK2/cyclinA): < 5 µM

COc1ncccc1-c1ccnc(Nc2ccncc2)n1 [Compound 89]
IC50 (CDK9/cyclinT1): > 50 µM | IC50 (CDK1/cyclinB): > 50 µM | IC50 (CDK2/cyclinA): > 50 µM

Cc1cc(-c2ccnc(Nc3cccc(Cl)c3)n2)cc(NCCCN)n1 [Compound 41, N-{4-[2-(3-Chloro-phenylamino)-pyrimidin-4-yl]-6-methyl-pyridin-2-yl}-propane-1,3-diamine]
IC50 (CDK9/cyclinT1): < 5 µM | IC50 (CDK1/cyclinB): < 5 µM

CC(=O)N(C)CCCN(C)c1nccc(-c2ccnc(Nc3cccc(Cl)c3)n2)c1C [Compound 10, N-[3-({4-[2-(3-Chloro-phenylamino)-pyrimidin-4-yl]-3-methyl-pyridin-2-yl}-methyl-amino)-propyl]-N-methyl-acetamide]
IC50 (CDK9/cyclinT1): < 5 µM | IC50 (CDK1/cyclinB): 5 to 15 µM

CC(=O)NCCCNc1nccc(-c2ccnc(Nc3cccc(CNC(C)=O)c3)n2)c1C [Compound 15, N-[3-(4-{2-[3-(Acetylamino-methyl)-phenylamino]-pyrimidin-4-yl}-3-methyl-pyridin-2-ylamino)-propyl]-acetamide]
IC50 (CDK9/cyclinT1): < 5 µM | IC50 (CDK1/cyclinB): > 50 µM

CCc1c(-c2ccnc(Nc3cccc(Cl)c3)n2)ccnc1NCCCNC(C)=O [Compound 7, N-(3-{4-[2-(3-Chloro-phenylamino)-pyrimidin-4-yl]-3-ethyl-pyridin-2-ylamino}-propyl)-acetamide]
IC50 (CDK9/cyclinT1): < 5 µM | IC50 (CDK1/cyclinB): < 5 µM

Cc1cc(-c2ccnc(NCCCN)c2)nc(Nc2cccc(Cl)c2)n1 [Compound 33, N-{4-[2-(3-Chloro-phenylamino)-6-methyl-pyrimidin-4-yl]-pyridin-2-yl}-propane-1,3-diamine]
IC50 (CDK9/cyclinT1): 15 to 50 µM | IC50 (CDK1/cyclinB): > 50 µM

Cc1c(-c2ccnc(Nc3cccc(Cl)c3)n2)ccnc1NCCCO [Compound 17, 3-{4-[2-(3-Chloro-phenylamino)-pyrimidin-4-yl]-3-methyl-pyridin-2-ylamino}-propan-1-ol]
IC50 (CDK9/cyclinT1): < 5 µM | IC50 (CDK1/cyclinB): < 5 µM

Cc1c(-c2ccnc(Nc3cccc(Cl)c3)n2)ccnc1NCCC(=O)O [Compound 20, 3-{4-[2-(3-Chloro-phenylamino)-pyrimidin-4-yl]-3-methyl-pyridin-2-ylamino}-propionic acid]
IC50 (CDK9/cyclinT1): < 5 µM | IC50 (CDK1/cyclinB): 5 to 15 µM

COc1ccc(-c2ccnc(Nc3cccc(Cl)c3)n2)c(OC)n1 [Compound 118, (3-Chloro-phenyl)-[4-(2,6-dimethoxy-pyridin-3-yl)-pyrimidin-2-yl]-amine]
IC50 (CDK9/cyclinT1): 5 to 15 µM | IC50 (CDK1/cyclinB): > 50 µM

Cc1cnc(Nc2cccc(Cl)c2)nc1-c1ccnc(NCCCN)c1 [Compound 31, N-{4-[2-(3-Chloro-phenylamino)-5-methyl-pyrimidin-4-yl]-pyridin-2-yl}-propane-1,3-diamine]
IC50 (CDK9/cyclinT1): < 5 µM | IC50 (CDK1/cyclinB): < 5 µM

CCc1c(-c2ccnc(Nc3cccc(Cl)c3)n2)ccnc1NCCCN [Compound 5, N-{4-[2-(3-Chloro-phenylamino)-pyrimidin-4-yl]-3-ethyl-pyridin-2-yl}-propane-1,3-diamine]
IC50 (CDK9/cyclinT1): < 5 µM | IC50 (CDK1/cyclinB): < 5 µM

Cc1cnc(NCCCN)cc1-c1ccnc(Nc2cccc(Cl)c2)n1 [Compound 39, N-{4-[2-(3-Chloro-phenylamino)-pyrimidin-4-yl]-5-methyl-pyridin-2-yl}-propane-1,3-diamine]
IC50 (CDK9/cyclinT1): < 5 µM | IC50 (CDK1/cyclinB): < 5 µM

CC(=O)NCc1ccc(NCCCNc2nccc(-c3ccnc(Nc4cccc(Cl)c4)n3)c2C)cc1 [Compound 28, N-[4-(3-{4-[2-(3-Chloro-phenylamino)-pyrimidin-4-yl]-3-methyl-pyridin-2-ylamino}-propylamino)-benzyl]-acetamide]
IC50 (CDK9/cyclinT1): < 5 µM | IC50 (CDK1/cyclinB): 15 to 50 µM

CC(=O)OCCCNc1nccc(-c2ccnc(Nc3cccc(Cl)c3)n2)c1C [Compound 19, Acetic acid 3-{4-[2-(3-chloro-phenylamino)-pyrimidin-4-yl]-3-methyl-pyridin-2-ylamino}-propyl ester]
IC50 (CDK9/cyclinT1): < 5 µM | IC50 (CDK1/cyclinB): 5 to 15 µM

Cc1c(-c2ccnc(Nc3cccc(Cl)c3)n2)ccnc1NCCCNc1ccc(CN)cc1 [Compound 27, N-(4-Aminomethyl-phenyl)-N′-{4-[2-(3-chloro-phenylamino)-pyrimidin-4-yl]-3-methyl-pyridin-2-yl}-propane-1,3-diamine]
IC50 (CDK9/cyclinT1): < 5 µM | IC50 (CDK1/cyclinB): 5 to 15 µM

CNc1nccc(-c2cccnc2OC)n1 [Compound 87, [4-(2-Methoxy-pyridin-3-yl)-pyrimidin-2-yl]-methyl-amine]
IC50 (CDK9/cyclinT1): 15 to 50 µM | IC50 (CDK1/cyclinB): 15 to 50 µM

COc1ncccc1-c1ccnc(N)n1 [Compound 86, 4-(2-Methoxy-pyridin-3-yl)-pyrimidin-2-ylamine]
IC50 (CDK9/cyclinT1): 15 to 50 µM | IC50 (CDK1/cyclinB): > 50 µM

CC(=O)NCCCNc1cc2c(cn1)CCc1cnc(Nc3cccc(Cl)c3)nc1-2 [Compound 36, N-{3-[3-(3-Chloro-phenylamino)-9,10-dihydro-2,4,7-triaza-phenanthren-6-ylamino]-propyl}-acetamide]
IC50 (CDK9/cyclinT1): < 5 µM | IC50 (CDK1/cyclinB): < 5 µM

COc1ncccc1-c1ccnc(NC2CCCCC2)n1 [Compound 88, Cyclohexyl-[4-(2-methoxy-pyridin-3-yl)-pyrimidin-2-yl]-amine]
IC50 (CDK9/cyclinT1): 5 to 15 µM | IC50 (CDK1/cyclinB): 15 to 50 µM

CNCCCN(C)c1nccc(-c2ccnc(Nc3cccc(Cl)c3)n2)c1C [Compound 9, N-{4-[2-(3-Chloro-phenylamino)-pyrimidin-4-yl]-3-methyl-pyridin-2-yl}-N,N′-dimethyl-propane-1,3-diamine]
IC50 (CDK9/cyclinT1): < 5 µM | IC50 (CDK1/cyclinB): < 5 µM

Cc1c(-c2ccnc(N(C)c3cccc(Cl)c3)n2)ccnc1NCCCN [Compound 8, N-(4-{2-[(3-Chloro-phenyl)-methyl-amino]-pyrimidin-4-yl}-3-methyl-pyridin-2-yl)-propane-1,3-diamine]
IC50 (CDK9/cyclinT1): 5 to 15 µM | IC50 (CDK1/cyclinB): 15 to 50 µM

CS(=O)(=O)c1cccc(Nc2nccc(-c3cccnc3Nc3cccc(S(C)(=O)=O)c3)n2)c1 [Compound 51, (3-Methanesulfonyl-phenyl)-{4-[2-(3-methanesulfonyl-phenylamino)-pyridin-3-yl]-pyrimidin-2-yl}-amine]
IC50 (CDK9/cyclinT1): < 5 µM | IC50 (CDK1/cyclinB): < 5 µM

Cc1c(-c2ccnc(Nc3cccc(Cl)c3)n2)ccnc1NCCCN [Compound 4, N-{4-[2-(3-Chloro-phenylamino)-pyrimidin-4-yl]-3-methyl-pyridin-2-yl}-propane-1,3-diamine]
IC50 (CDK9/cyclinT1): < 5 µM | IC50 (CDK1/cyclinB): < 5 µM

NCCCNc1cc2c(cn1)CCc1cnc(Nc3cccc(Cl)c3)nc1-2 [Compound 35, N-(3-Amino-propyl)-N-(3-chloro-phenyl)-9,10-dihydro-2,4,7-triaza-phenanthrene-3,6-diamine]
IC50 (CDK9/cyclinT1): < 5 µM | IC50 (CDK1/cyclinB): < 5 µM

CC(=O)NCCCNc1cc(-c2ccnc(Nc3cccc(Cl)c3)n2)c(C)cn1 [Compound 40, N-(3-{4-[2-(3-Chloro-phenylamino)-pyrimidin-4-yl]-5-methyl-pyridin-2-ylamino}-propyl)-acetamide]
IC50 (CDK9/cyclinT1): < 5 µM | IC50 (CDK1/cyclinB): 15 to 50 µM

Clc1cccc(Nc2nccc(-c3cccnc3Cl)n2)c1 [Compound 43, (3-Chloro-phenyl)-[4-(2-chloro-pyridin-3-yl)-pyrimidin-2-yl]-amine]
IC50 (CDK9/cyclinT1): < 5 µM | IC50 (CDK1/cyclinB): < 5 µM
